From patent publication USRE39723E1, “Semi-synthetic taxanes with antitumor and antiangiogenetic activities” (Indena S.p.A., priority 2000, dated 2007) come the findings set out here.

The subject of data set [1] is angiogenesis induced by FGF-2 adsorbed on a Matrigel pellet. Description: Matrigel test, in vivo antiangiogenetic activity (hemoglobin content in pellets). The conditions noted are these: after 7 days. Details: species or system C57BL6N mice. As to the method:
The antiangiogenic activity was evaluated by means of the Matrigel test, in which angiogenesis is induced by FGF-2 ([…]) adsorbed on a Matrigel pellet (12.5 mg/ml, 0.5 mL) injected subcutaneously in C57BL6N mice.
The tested compound was administered through the oral route daily or through the intraperitoneal route on alternate days, at the shown concentration. After 7 days, the angiogenic response was evaluated by measuring the hemoglobin content in the pellets, according to the procedure by Drabkin.

With “13-[(2R, 3S)-3-iso-butyl-2-hydroxy-3-tert-butoxycarbonylamino-propanoyl]-C-seco-10-dehydro-10-deacetyl-7,9-bis-acetyl-baccatine III [Example II]”, the results for the “% (change of hemoglobin content)” value in data set [1] (90 mg/kg i.p. on alternate days) and in data set [1] (150 mg/kg p.o. daily) were −50% and −70%, respectively. The Hemoglobin was determined as 0.015 ± 0.001 g/dL in data set [1] (90 mg/kg i.p. on alternate days, FGF-2 Matrigel pellet s.c.) and 0.009 ± 0.001 g/dL in data set [1] (150 mg/kg p.o. daily, FGF-2 Matrigel pellet s.c.).
As for “13-[(2R, 3S)-3-isobutyl-2-hydroxy-3-tert-butoxycarbonylamino-propanoyl]-C-seco-10-dehydro-10-deacetyl-7,9-bis-acetyl-baccatine III 1,14-carbonate [Example VII]”, the “% (change of hemoglobin content)” value is −40% in data set [1] (50 mg/kg i.p. on alternate days) and −70% in data set [1] (100 mg/kg p.o. daily). For the same molecule, the Hemoglobin in data set [1] (50 mg/kg i.p. on alternate days, FGF-2 Matrigel pellet s.c.) is 0.014 g/dL; in data set [1] (100 mg/kg p.o. daily, FGF-2 Matrigel pellet s.c.), 0.009 g/dL.
Regarding `CC(=O)O[C@H]1C(=O)[C@@]2(C)[C@H]([C@H](OC(=O)c3ccccc3)[C@]3(O)C[C@H](OC(=O)[C@H](O)[C@@H](NC(=O)c4ccccc4)c4ccccc4)C(C)=C1C3(C)C)[C@]1(OC(C)=O)CO[C@@H]1C[C@@H]2O` [Paclitaxel], the “neuro-toxicity (tremors)” value (mouse, in vivo) was “induces tremors”. In addition, the weight loss result (nude mouse with human tumor cells, dose effective in inhibiting tumor growth (same antitumor activity)) was “up to 20%”.
Consider “FGF-2: growth factor adsorbed on the Matrigel pellet to induce angiogenesis [reference compound]”, for which the Hemoglobin in data set [1] (FGF-2 alone (150 mg/pellet) on Matrigel pellet, no test compound) was 0.03 ± 0.001 g/dL. Moreover, in data set [1] (FGF-2 alone versus control), the “% (change of hemoglobin content)” value is “+300%”.
